From ChEMBL document CHEMBL5532672, “Discovery of 2-Ethoxy-5-isobutyramido-N-1-substituted Benzamide Derivatives as Selective Kv2.1 Inhibitors with In Vivo Neuroprotective Effects” (J Med Chem, 2024) come the findings set out here.

Data set [1] can be described thus: Plasma concentration in rat at 5 mg/kg, po measured after 30 mins. The class given is ADME, organism-based.
Data set [2] addresses Potassium voltage-gated channel subfamily A member 5 (Homo sapiens, UniProt P22460). In words: Inhibition of KV1.5 (unknown origin) by whole cell patch-clamp assay. Background: The patch-clamp technique gives a direct electrical read-out from membranes.
Data set [3] in a line: Brain concentration in rat at 1 mg/kg, iv measured after 30 mins. The class given is ADME, organism-based. The following applies: read-out: Ct.
Data set [4] in a line: Tmax in Sprague-Dawley rat at 5 mg/kg, po measured upto 24 hrs by LC/MS/MS analysis. The format is ADME, organism-based. The following applies: in vivo.
A short description of data set [5]: AUC (0 to infinity) in Sprague-Dawley rat at 0.5 mg/kg, iv measured upto 24 hrs by LC/MS/MS analysis. The conditions noted are these: in vivo. The class given is ADME, organism-based.
Data set [6] can be described thus: Terminal elimination half life in Sprague-Dawley rat at 5 mg/kg, po measured upto 24 hrs by LC/MS/MS analysis. The format is ADME, organism-based. The conditions noted are these: in vivo, read-out: beta t1/2 (converted).
The nature of data set [7]: Apparent volume of distribution in Sprague-Dawley rat at […], iv measured upto 24 hrs by LC/MS/MS analysis. The conditions noted are these: in vivo, read-out: Vz. The format is ADME, organism-based.
Data set [8] is described as follows: AUC (0 to infinity) in Sprague-Dawley rat at 5 mg/kg, po measured upto 24 hrs by LC/MS/MS analysis. The following applies: in vivo. The class given is ADME, organism-based.
The nature of data set [9]: MRT (0 to infinity) in Sprague-Dawley rat at 0.5 mg/kg, iv measured upto 24 hrs by LC/MS/MS analysis. The format is ADME, organism-based. The following applies: in vivo.
A short description of data set [10]: Plasma concentration in rat at 1 mg/kg, iv measured after 15 mins. The class given is ADME, organism-based.
Data set [11] in a line: AUC (0 to t) in Sprague-Dawley rat at 0.5 mg/kg, iv measured upto 24 hrs by LC/MS/MS analysis. The class given is ADME, organism-based. The following applies: in vivo.
For data set [12], the system named is HEK293. In words: Anti-apoptotic activity in HEK293 cells harbouring Kv2.1 assessed as viable cells at 3 uM by annexin-V and propidium staining based flow cytometry analysis (reference value: 99.8%). The format is functional. The conditions noted are these: Homo sapiens, read-out: Activity. In general terms: In flow cytometry, cells or beads pass a laser one at a time.

Data set [13] deals with T1, Potassium voltage-gated channel subfamily B member 1 (Homo sapiens, UniProt Q14721).
T1 sequence (Q14721 whole entry): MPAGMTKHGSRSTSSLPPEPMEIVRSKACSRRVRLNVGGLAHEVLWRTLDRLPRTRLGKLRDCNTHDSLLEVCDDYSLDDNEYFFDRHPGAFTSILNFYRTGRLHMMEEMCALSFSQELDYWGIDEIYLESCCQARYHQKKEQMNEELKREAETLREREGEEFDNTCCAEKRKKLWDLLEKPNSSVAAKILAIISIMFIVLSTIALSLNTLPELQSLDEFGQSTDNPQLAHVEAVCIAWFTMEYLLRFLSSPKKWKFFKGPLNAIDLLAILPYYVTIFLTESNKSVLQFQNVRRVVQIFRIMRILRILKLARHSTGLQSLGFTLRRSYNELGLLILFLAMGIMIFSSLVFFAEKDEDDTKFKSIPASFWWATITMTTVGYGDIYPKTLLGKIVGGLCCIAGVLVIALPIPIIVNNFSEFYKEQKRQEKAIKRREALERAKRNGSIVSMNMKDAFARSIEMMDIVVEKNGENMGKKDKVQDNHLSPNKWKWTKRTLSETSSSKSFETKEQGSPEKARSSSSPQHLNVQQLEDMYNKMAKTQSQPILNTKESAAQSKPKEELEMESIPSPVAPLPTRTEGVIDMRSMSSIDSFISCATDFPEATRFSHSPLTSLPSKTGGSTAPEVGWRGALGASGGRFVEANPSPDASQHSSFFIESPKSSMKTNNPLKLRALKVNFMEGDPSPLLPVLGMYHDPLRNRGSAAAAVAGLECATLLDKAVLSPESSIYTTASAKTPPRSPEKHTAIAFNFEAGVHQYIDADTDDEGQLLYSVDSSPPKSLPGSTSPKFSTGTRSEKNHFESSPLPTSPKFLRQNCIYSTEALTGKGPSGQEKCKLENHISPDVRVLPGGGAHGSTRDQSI
The data set is described as follows: Inhibition of human KV2.1 stably expressed in HEK293 cells by whole cell patch-clamp assay. The format is cell-based.

Data set [14] in a line: MRT (0 to infinity) in Sprague-Dawley rat at 5 mg/kg, po measured upto 24 hrs by LC/MS/MS analysis. The class given is ADME, organism-based. The following applies: in vivo.
For data set [15], the system named is HEK293. The data set is described as follows: Anti-apoptotic activity in HEK293 cells harbouring Kv2.1 assessed as viable cells at 0.3 uM by annexin-V and propidium staining based flow cytometry analysis (reference value: 99.8%). The class given is functional. The following applies: Homo sapiens, read-out: Activity.
The target in data set [16] is Voltage-gated inwardly rectifying potassium channel KCNH2 (Homo sapiens, UniProt Q12809). In words: Inhibition of human ERG by whole cell patch-clamp assay. The format is toxicity.
The nature of data set [17]: Plasma concentration in rat at 1 mg/kg, iv measured after 30 mins. The class given is ADME, organism-based.
Data set [18] is described as follows: AUC (0 to t) in Sprague-Dawley rat at 5 mg/kg, po measured upto 24 hrs by LC/MS/MS analysis. The following applies: in vivo. The class given is ADME, organism-based.
In data set [19] the target is T2, Voltage-gated potassium channel KCNC1 (Homo sapiens, UniProt P48547).
T2 sequence (P48547 whole entry): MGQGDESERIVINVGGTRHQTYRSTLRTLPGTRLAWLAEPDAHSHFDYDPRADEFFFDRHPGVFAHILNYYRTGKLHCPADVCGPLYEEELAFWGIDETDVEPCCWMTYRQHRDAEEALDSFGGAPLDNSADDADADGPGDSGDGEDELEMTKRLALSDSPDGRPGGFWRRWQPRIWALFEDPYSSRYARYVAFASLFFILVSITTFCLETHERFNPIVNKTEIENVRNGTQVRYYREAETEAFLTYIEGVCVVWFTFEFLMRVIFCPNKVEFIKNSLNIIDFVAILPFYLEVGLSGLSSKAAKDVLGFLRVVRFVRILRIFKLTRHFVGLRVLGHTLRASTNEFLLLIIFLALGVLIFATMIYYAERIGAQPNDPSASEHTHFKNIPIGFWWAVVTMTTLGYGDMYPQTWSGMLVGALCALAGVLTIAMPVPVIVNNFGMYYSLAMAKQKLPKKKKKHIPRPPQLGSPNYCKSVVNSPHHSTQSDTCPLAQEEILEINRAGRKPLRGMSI
The data set is described as follows: Inhibition of KV3.1 (unknown origin) by whole cell patch-clamp assay.

Data set [20] can be described thus: Oral bioavailability in Sprague-Dawley rat at 5 mg/kg measured upto 24 hrs by LC/MS/MS analysis. The class given is ADME, organism-based. The conditions noted are these: in vivo.
Data set [21] can be described thus: Brain concentration in rat at 5 mg/kg, po measured after 30 mins. The following applies: read-out: Ct. The format is ADME, organism-based.
A short description of data set [22]: Brain concentration in rat at 1 mg/kg, iv measured after 15 mins. The format is ADME, organism-based. The following applies: read-out: Ct.
A short description of data set [23]: Clearance in Sprague-Dawley rat at 0.5 mg/kg, iv measured upto 24 hrs by LC/MS/MS analysis. The class given is ADME, organism-based. The following applies: in vivo.
Data set [24] in a line: Terminal elimination half life in Sprague-Dawley rat at 0.5 mg/kg, iv measured upto 24 hrs by LC/MS/MS analysis. The class given is ADME, organism-based. The conditions noted are these: in vivo, read-out: beta t1/2 (converted).
Data set [25] is described as follows: Cmax in Sprague-Dawley rat at 5 mg/kg, po measured upto 24 hrs by LC/MS/MS analysis. The class given is ADME, organism-based. The following applies: in vivo.
The nature of data set [26]: MRT (0 to t) in Sprague-Dawley rat at 5 mg/kg, po measured upto 24 hrs by LC/MS/MS analysis. The format is ADME, organism-based. The conditions noted are these: in vivo.
Data set [27] can be described thus: Cmax in Sprague-Dawley rat at 0.5 mg/kg, iv measured upto 24 hrs by LC/MS/MS analysis. The format is ADME, organism-based. The following applies: in vivo.
Data set [28] concerns HEK293. The data set is described as follows: cells. The following applies: Homo sapiens, HEK293, read-out: Activity; at 10 mM.
Description: Anti-apoptotic activity in HEK293 cells harbouring Kv2.1 assessed as viable cells at 10 mM by annexin-V and propidium staining based flow cytometry analysis (Rvb = 99.8% )

Where only a bound is given, the exact number is not on record here.

Chain of Potassium voltage-gated channel subfamily A member 5 (P22460 whole entry): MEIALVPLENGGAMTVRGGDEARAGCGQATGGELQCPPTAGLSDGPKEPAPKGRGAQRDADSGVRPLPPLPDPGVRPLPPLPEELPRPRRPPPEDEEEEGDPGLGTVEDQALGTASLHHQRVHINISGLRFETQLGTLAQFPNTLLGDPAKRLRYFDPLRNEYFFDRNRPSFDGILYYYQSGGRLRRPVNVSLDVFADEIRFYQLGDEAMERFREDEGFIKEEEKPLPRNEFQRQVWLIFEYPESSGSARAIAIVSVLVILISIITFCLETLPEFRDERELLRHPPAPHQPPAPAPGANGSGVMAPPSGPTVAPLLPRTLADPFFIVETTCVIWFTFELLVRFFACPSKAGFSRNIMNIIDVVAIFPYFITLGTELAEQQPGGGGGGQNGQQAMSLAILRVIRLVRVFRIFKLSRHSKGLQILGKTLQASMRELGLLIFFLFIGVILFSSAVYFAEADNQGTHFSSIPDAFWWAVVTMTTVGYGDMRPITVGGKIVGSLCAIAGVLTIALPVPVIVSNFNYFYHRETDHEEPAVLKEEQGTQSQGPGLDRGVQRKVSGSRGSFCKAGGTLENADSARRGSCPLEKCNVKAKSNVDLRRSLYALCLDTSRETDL
Chain of Voltage-gated inwardly rectifying potassium channel KCNH2 (Q12809 whole entry): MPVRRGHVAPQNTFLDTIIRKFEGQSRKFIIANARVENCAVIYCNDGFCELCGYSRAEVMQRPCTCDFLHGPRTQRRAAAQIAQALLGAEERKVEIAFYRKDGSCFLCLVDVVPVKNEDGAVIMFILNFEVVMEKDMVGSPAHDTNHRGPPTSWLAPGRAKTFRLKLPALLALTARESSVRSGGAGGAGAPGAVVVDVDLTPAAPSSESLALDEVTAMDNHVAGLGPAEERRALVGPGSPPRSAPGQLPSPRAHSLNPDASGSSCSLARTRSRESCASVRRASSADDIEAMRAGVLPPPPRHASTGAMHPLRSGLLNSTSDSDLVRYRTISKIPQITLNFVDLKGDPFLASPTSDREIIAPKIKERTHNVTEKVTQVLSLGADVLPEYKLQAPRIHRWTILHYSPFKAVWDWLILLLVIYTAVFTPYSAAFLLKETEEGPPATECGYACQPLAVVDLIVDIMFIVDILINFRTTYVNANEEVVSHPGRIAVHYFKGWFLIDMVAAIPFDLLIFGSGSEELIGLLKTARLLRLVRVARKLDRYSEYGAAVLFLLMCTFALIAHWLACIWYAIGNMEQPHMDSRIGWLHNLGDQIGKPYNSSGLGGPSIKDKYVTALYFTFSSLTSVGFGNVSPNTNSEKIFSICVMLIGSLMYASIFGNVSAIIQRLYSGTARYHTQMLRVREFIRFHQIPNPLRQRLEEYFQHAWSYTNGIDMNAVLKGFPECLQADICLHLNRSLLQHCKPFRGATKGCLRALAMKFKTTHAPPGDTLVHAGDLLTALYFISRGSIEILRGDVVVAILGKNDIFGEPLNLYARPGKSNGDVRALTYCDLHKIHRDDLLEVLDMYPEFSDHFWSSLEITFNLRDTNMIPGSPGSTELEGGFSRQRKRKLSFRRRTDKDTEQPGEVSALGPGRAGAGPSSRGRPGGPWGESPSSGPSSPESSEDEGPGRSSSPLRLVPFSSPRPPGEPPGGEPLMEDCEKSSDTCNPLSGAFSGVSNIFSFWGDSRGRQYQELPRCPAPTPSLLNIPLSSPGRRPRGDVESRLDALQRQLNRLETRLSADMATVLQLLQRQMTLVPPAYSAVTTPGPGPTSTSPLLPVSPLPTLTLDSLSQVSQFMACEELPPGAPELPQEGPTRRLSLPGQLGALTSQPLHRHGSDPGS

As usually defined, the IC50 is the point on the concentration scale where inhibition reaches its midpoint. The Tmax is the time from dosing to the highest level. As a reminder, the AUC(0-inf) is total exposure, with the tail of the curve extrapolated. As usually defined, the MRT inf is a mean duration of stay, worked out from the concentration-time curve. Usually AUC(0-t) stands for exposure summed from dosing to a finite time, without extrapolation to infinity. High values mean high exposure, low ones low exposure. In general, bioavailability refers to dose-corrected exposure relative to a reference, in per cent. Higher therefore signals much systemic uptake. In general, clearance refers to a measure of how efficiently the substance is removed, as volume per time. Read a high clearance as a high capacity for elimination. By Cmax is commonly meant the maximum level reached in the sampled fluid or tissue. A word on the MRT last: it is a mean duration of stay, worked out from the concentration-time curve. On to `CCOc1ccc(NC(=O)C(C)C)cc1C(=O)NC(C)c1cccc(NC)c1` (stereo not drawn), for which the concentration at 0.5 h in data set [1] was found to be 580 ng/mL; in data set [3], 14.6 ng/g; in data set [17] it was 235 ng/mL; in data set [21], 54.9 ng/g. Moreover, the IC50 is 9.2 µM in [2], 0.07 µM in data set [13], 30 µM in [16] and above 30 µM in data set [19]. Besides, the Tmax in data set [4] came to 0.65 h. Besides, the AUC(0-inf) in [5] turned out to be 174 ng·h/mL; in data set [8], 355 ng·h/mL. Besides, the half-life in [6] is 1.89 h; in [24], 0.51 h. The Vd in data set [7] was 2.1 L/kg. Also, the MRT inf in data set [9] amounted to 1.39 h; in [14] it was 2.52 h. Also, the concentration at 0.25 h in [10] is 539 ng/mL; in data set [22], 38.2 ng/g. Further, the AUC(0-t) at 24 h stood at 174 ng·h/mL in [11] and 337 ng·h/mL in data set [18]. Besides, the viability at 3 µM in data set [12] was 55.4%. Besides, the viability at 0.3 µM in data set [15] was found to be 62%. The compound further returned a bioavailability in data set [20] of 20.4%. The compound also had a clearance in [23] of 48 mL/min/kg. Also, the Cmax is 147 ng/mL in data set [25] and 693 ng/mL in data set [27]. Further, the MRT last at 24 h in [26] was 2.05 h.
Turning to `CC[N+](CC)(CC)CC` [TETRYLAMMONIUM], the viability at 10000 µM in data set [28] amounted to 58.4%.
